According to PMC12316777:

Tests used:
[1] = molecular target: T1, SARS-CoV-2 nsp13 (helicase) (Severe acute respiratory syndrome coronavirus 2, UniProt P0DTD1); assay: ATPase assay (phosphate release); assay type: biochemical; details: for IC50: 20 nM nsp13, n = 3, read-out: IC50 (± SD) ATPase
[2] = molecular target: T1, SARS-CoV-2 nsp13 (helicase); assay: FRET DNA duplex unwinding assay; assay type: biochemical; details: for IC50: 20 nM nsp13, n = 3, read-out: IC50 (± SD) DNA unwinding
[3] = molecular target: T2, SARS-CoV-2 nsp13 (Severe acute respiratory syndrome coronavirus 2, UniProt P0DTD1); assay: BODIPY FL ATP-γ-S fluorescence assay (ATP binding); details: for fluorescence intensity of BODIPY FL ATP-γ-S with nsp13: 1 μM compound, 10 min pre-incubation, 10 nM BODIPY FL ATP-γ-S
[4] = system: SARS-CoV-2 variants Omicron BA.5.2 and XBB in VeroE6-TMPRSS2 cells; assay type: cell-based
[5] = molecular target: T2, SARS-CoV-2 nsp13; assay: Metal displacement analysis (equilibrium dialysis, ICP-MS), nsp13; assay type: binding
Description: Nsp13 also consists of 3 zinc finger sites at its N-terminal zinc-binding domain. Therefore, we first investigated whether Au(I) could interact with zinc fingers in nsp13 by equilibrium dialysis.
Au(I) binding and Zn(II) release on nsp10 and nsp14 were determined by Inductively Coupled Plasma Mass Spectrometry (ICP-MS) on Agilent 7700 × ICP-MS (Agilent Technologies). […] Dialysis tubes loaded with 100 μL Zn-bound proteins (5 μM for nsp14 and nsp13 and 20 μM for nsp10) or protein buffer were placed into 50 mL dialysis buffer in the presence of different concentrations of Au(I) compounds (as Au(PEt3)Cl) with mild shaking at 18 °C overnight. The protein concentration was measured by bicinchoninic acid (BCA) assay, and the metal concentration of solution both inside and outside the dialysis tubes was determined by ICP-MS.

[6] = molecular target: T2, SARS-CoV-2 nsp13; assay: EMSA of nsp13 binding to dsDNA substrate; details: 2 μM nsp13, 0, 2, 10 and 20 μM compound, 2 h, 100 nM DNA
Description: We preincubated 2 μM nsp13 with different concentrations (0, 2, 10 and 20 μM) of Au(PEt3)Cl for 2 h at room temperature, then incubated with 100 nM DNA substrate to form the protein-dsDNA complex.
EMSA for investigating the binding between nsp13 and DNA substrates was performed as previously reported. Briefly, 2 μM nsp13 was incubated with Au(PEt3)Cl in a dose-dependent manner in 20 μL binding buffer (20 mM Tris pH 7.4, 20 mM NaCl, 1 mM TCEP, 5 mM MgCl2) for 2 h at 25 °C. Then, incubated per sample at 37 °C with 100 nM dsDNA. After 15 min incubation, the reaction was stopped by 4 μL loading buffer (50% glycerol, 0.02% bromophenol blue). The reaction mixture was electrophoresed in 8% native-polyacrylamide gels at 150 V for 1 h. The gel was stained by GelRed (Sigma Aldrich) for 10 min and images were captured by iBright™ CL750 Imaging System (Thermo Fisher Scientific).
Fig. S3 EMSA image of the binding between DNA substrate and nsp13 in the presence of increasing
amounts of Au(I)- based compound (as Au(PEt3)Cl).
(1 picture or pasted object on this page, not shown here)

Compound | IC50 [1] [nM] | inhibition of ATPase activity ([1]; 50 mol equiv of compound) | IC50 [2] [nM] | inhibition of DNA unwinding activity ([2]; 50 mol equiv of compound) | fluorescence intensity of BODIPY FL ATP-γ-S with nsp13 [3] | further results
[Cl][Au] [AuCl, gold(I) chloride] | 200 ± 10 | more than 50% | 200 ± 30 | more than 50% | decreased | 
CC(=O)OC[C@H]1O[C@@H]([S-])[C@H](OC(C)=O)[C@@H](OC(C)=O)[C@@H]1OC(C)=O.CCP(CC)CC.[Au+] [auranofin] |  |  |  |  |  | maximum reduction of viral load in the cell culture supernatant [4]: 4 − 6 log10 units
(1-(adamantan-1-yl)thiourea)-(triethylphosphine)-gold(I) [Au-amantadine] | 1150 ± 230 |  | 720 ± 130 |  | decreased | 
CCP(CC)CC.[Au+].[Cl-] [Au(PEt3)Cl, chloro(triethylphosphine)gold(I)] | 400 ± 90 | more than 50% | 330 ± 40 | more than 50% | decreased | Au(I) bound to nsp13 ([5]; equilibrium dialysis, ICP-MS): ca. 2.97 ± 0.20 mol equiv; Zn(II) release from nsp13 ([5]; equilibrium dialysis, ICP-MS): ca. 2.88 ± 0.18 mol equiv; maximal binding capacity (Bmax), nsp13 ([5]; nonlinear fit to specific binding plot): 3.33 ± 0.11; Kd ([5]; nonlinear fit to specific binding plot, read-out: dissociation constant (Kd), nsp13): 2290 ± 220 nM; fluorescence intensity of BODIPY FL ATP-γ-S with nsp13, dose dependence ([3]; 0.1, 0.2, 0.5 and 1 μM): decreased in a dose-dependent manner; effect on binding of nsp13 to dsDNA [6]: did not disrupt
CC[PH](CC)(CC)[Au][S]CC(NC(=O)CCC(N)C(=O)O)C(=O)NCC(=O)O [Au-GSH, ((R)-2-((S)-4-amino-4-carboxybutanamido)-3-((carboxymethyl)amino)-3-oxopropyl)thiolate)-(triethyl-phosphine)-gold(I)] |  |  |  |  |  | ATPase enzymatic activity remaining ([1]; 50 mol equiv of compound): 51.33%; DNA unwinding enzymatic activity remaining ([2]; 50 mol equiv of compound): 41.67%
O=S(=O)([O-])[S-].O=S(=O)([O-])[S-].[Au+].[Na+].[Na+].[Na+] [Na3Au(S2O3)2, gold(I) sodium thiosulfate] | 250 ± 80 | more than 50% | 380 ± 50 | more than 50% | decreased | 
